From ChEMBL document CHEMBL1201862, “PubChem BioAssay data set” (2004)
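Growth conditions: 96-well plates. Treatment: test compound, 48 hours, 5 concentrations. Analysis: linear interpolation between bracketing concentrations; unreached endpoints set to highest concentration. At the GI50, growth is halved.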 Active and inactive are the calls of the source. Rule as the data show it: active = GI50 up to about 1.1 µM and inactive = higher.

Columns and labels:
Assay in all cases: growth of human tumour cells (NCI), 48 h
[1] = test system: T47D
[2] = test system: DU-145
[3] = test system: BT-549
[4] = test system: MDA-MB-435
[5] = test system: MDA-MB-231
[6] = test system: 786-0
[7] = test system: XF498
[8] = test system: RXF 631
[9] = test system: LXFL 529

| SMILES | GI50 [1] | GI50 [2] | GI50 [3] | GI50 [4] | GI50 [5] | GI50 [6] | GI50 [7] | further results |
| --- | --- | --- | --- | --- | --- | --- | --- | --- |
| N#Cc1c(NC(=S)NC(=O)c2ccccc2)nc2c(c1-c1ccccc1)CCCC2 | 17.7 µM (inactive) | > 100 µM (inactive) | 30.5 µM (inactive) | > 100 µM (inactive) | 93.8 µM (inactive) | – | – | – |
| O=C1C=C(Sc2ccccc2)c2nccc3c2c1nc1ccccc13 | – | 40.9 µM (inactive) | 16 µM (inactive) | 16.9 µM (inactive) | 20 µM (inactive) | 16.9 µM (inactive) | – | – |
| c1ccc2c(c1)NCc1cc3ccccc3nc1O2 | – | – | – | – | – | – | > 100 µM (inactive) | – |
| COc1ccc2[nH]c3c(C)c4ccncc4c(C)c3c2c1 | – | – | – | – | – | – | 2.7 µM (inactive) | – |
| COc1ccc(C2c3cc4c(cc3OC(NCCO)C2C)OCO4)cc1 (stereo unspecified) | 30.3 µM (inactive) | 29.4 µM (inactive) | 16.7 µM (inactive) | 23.6 µM (inactive) | 26.9 µM (inactive) | – | – | – |
| O=C1CCCCC2N(C(c3ccccc3)c3ccccc3)CC[C@@]12c1ccccc1.O=C1CCCC[C@H]2N(C(c3ccccc3)c3ccccc3)CC[C@@]12c1ccccc1 (stereo partly specified) | – | – | – | – | – | – | – | GI50 [8]: 3.88 µM (inactive) |
| CC(C(=O)NCCNC(=O)CCCC(=O)N(C)O)C(=O)NCCNC(=O)CCCC(=O)N(C)O | > 100 µM (inactive) | > 100 µM (inactive) | – | > 100 µM (inactive) | > 100 µM (inactive) | – | – | – |
| O=C/C(=C1/C=Cc2cc([N+](=O)[O-])ccc2S1)c1ccccc1 | > 100 µM (inactive) | > 100 µM (inactive) | – | > 100 µM (inactive) | > 100 µM (inactive) | > 100 µM (inactive) | – | – |
| Nc1ccccc1Sc1ccc(Cl)cc1 | – | – | – | – | – | – | – | GI50 [9]: 38.2 µM (inactive) |
| CN(C)c1ccc(C2CC(=O)CC(c3ccc(N(C)C)cc3)C23C(=O)NC(=O)NC3=O)cc1 (stereo unspecified) | > 25 µM (inactive) | > 25 µM (inactive) | 23 µM (inactive) | > 25 µM (inactive) | > 25 µM (inactive) | 12.4 µM (inactive) | – | – |
| COC1C(O)C(n2ncc3c(SC)nc(SC)nc32)OC1C(O)CO (stereo unspecified) | – | – | – | – | – | – | > 100 µM (inactive) | – |
| Cc1nn(C)c2c1C(=O)N(C)CC(=O)N2C | – | > 100 µM (inactive) | > 100 µM (inactive) | > 100 µM (inactive) | – | > 100 µM (inactive) | – | – |
| Nc1ccccc1S(=O)(=O)c1ccccc1 | – | – | – | – | – | – | – | GI50 [9]: > 100 µM (inactive); GI50 [8]: > 100 µM (inactive) |
| CC(C)(C)/N=c1/n(C(C)(C)C)oc(=O)n1C(C)(C)C | – | – | > 100 µM (inactive) | – | > 100 µM (inactive) | > 100 µM (inactive) | – | – |
| Nc1ccc(N(S(=O)(=O)c2ccccc2)S(=O)(=O)c2ccccc2)c(Cl)c1 | 48.1 µM (inactive) | 95.7 µM (inactive) | 56.5 µM (inactive) | 15.1 µM (inactive) | 98.2 µM (inactive) | 81.1 µM (inactive) | – | – |
| COc1cc2c(oc(=O)c3cc(C)cc(OC)c32)c2c(C3OC(C)C(O)C(C)(O)C3O)ccc(O)c12 (stereo unspecified) | – | – | – | – | – | – | 0.37 µM (active) | – |
| O=C1NC(=O)C(CCO)(c2ccccc2)C(=O)N1 | – | – | – | – | – | – | > 68.4 µM (inactive) | – |
| CCOC(=O)c1c[nH]c2cc3c(cc2c1=O)CCS3(=O)=O.CCOC(=O)c1c[nH]c2ccc3c(c2c1=O)S(=O)(=O)CC3 | – | – | – | – | – | – | > 100 µM (inactive) | – |
| Cc1c(Cl)c(=O)oc2cc(OCC(=O)c3ccccc3)ccc12 | > 100 µM (inactive) | > 100 µM (inactive) | > 100 µM (inactive) | > 100 µM (inactive) | 29.4 µM (inactive) | – | – | – |
| Cc1ccc(C#CS(=O)(=O)C(F)(F)F)cc1 | – | – | – | – | – | – | > 100 µM (inactive) | – |
| Oc1c(Br)ccc2cccnc12 | 1.51 µM (inactive) | 5.4 µM (inactive) | 7.48 µM (inactive) | 7.5 µM (inactive) | 1.87 µM (inactive) | 3.91 µM (inactive) | – | – |
| N#CC1=C(O)NC(O)=C(C#N)C1c1c(Cl)cccc1Cl | – | – | – | – | – | – | 61.4 µM (inactive) | – |
| C=CCOCCC(CC=C)C(=O)CC(=O)OC (stereo unspecified) | – | – | – | – | – | – | > 100 µM (inactive) | – |
| C=CCC12CC(=O)C=C1CCC1(C2)OCCO1 (stereo unspecified) | – | – | – | – | – | > 100 µM (inactive) | – | GI50 [9]: > 100 µM (inactive); GI50 [8]: > 100 µM (inactive) |
| CN(C)CCCNC(=O)N/N=C/c1ccccc1 | – | – | – | – | – | – | > 100 µM (inactive) | – |
| CC(C)CC(N)C(=O)NC(CNC(CCC(N)=O)C(=O)NC(CC(C)C)C(=O)NC(CC(C)C)C(=O)O)Cc1ccc2ccccc2c1 (stereo unspecified) | – | > 10 µM (inactive) | > 10 µM (inactive) | > 10 µM (inactive) | > 10 µM (inactive) | > 10 µM (inactive) | – | – |
